Measured values taken from PMC6208284 (Phytotherapy Research, 2018).

Legend:
[1] = system: Leishmania tarentolae promastigotes (LtP); experiment: Low molecular thiols in LtP, CMFDA method; assay type: cell-based; conditions: 5 hr incubation at 26 °C, PBS/glucose
Experimental: LtP were centrifuged twice (1,800 g, 10 min, 20 °C), the cell pellets were resuspended in PBS/glucose (15 mM), and the cell number was adjusted to 1 × 10^7/ml. Aliquots (250 μl) were added to 96‐well plates (black, nontreated plates), along with compound stocks (keeping a maximum of 2% DMSO). Following a 5‐hr incubation at 26 °C, plates were centrifuged (1,800 g, 10 min, 20 °C), and 200 μl of supernatant was removed. To the remaining cell suspension, 100 μl of CMFDA in PBS was added giving a final concentration of 5 μM. After gentle shaking, the cells were incubated for 15 min at 37 °C in the dark. The fluorescence of the methyl fluorescein (MF)‐thiol adduct (Sarkar, Mandal, Singh, Sundar, & Chatterjee, 2009) was measured at 15, 30, 45, and 60 min at 485 nm (excitation wavelength) and 530 nm (emission wavelength) using a plate reader (PerkinElmer Enspire, Germany). The OD600 nm was determined for cell count, and the measured fluorescence intensity was normalized to the cell number. Three replicate measurements were performed for each condition.

[2] = system: Leishmania tarentolae promastigotes (LtP); experiment: Mitochondrial coupling (RCR) in LtP, Clark-type electrode, short- and long-term incubation; assay type: cell-based; conditions: 200 μM
Experimental: Direct inhibitors of mitochondrial ETC instantaneously influence mitochondrial oxygen consumption. To assay the effect of EO compounds on oxygen consumption of LtP, a Clark‐type oxygen electrode (Hansatech, Germany) and software MCREC were used. LtP at approximately 10^8 cells/ml in YEM (25 °C) were added and treated with increasing concentrations of EO compounds between 10 and 200 μM and for EO 5.6–89.6 μg/ml. Each concentration was assayed in quadruplicates, and the results were expressed as percentage of oxygen consumption in comparison with the untreated control LtP. The highest concentration of the vehicle (1% DMSO) caused only 2% inhibition. The uncoupling effect in short‐term and long‐term (0, 6, and 24 hr) incubations with Asc (200 μM) was studied in Oligo‐inhibited (5 μM) and uncoupler‐stimulated (0.5 μM CCCP) LtP in Schneider's medium supplemented with 6 μM hemin. Four replicates were performed for each concentration.

[3] = system: Leishmania amazonensis promastigotes (LaP); set-up: method as in Monzote, Garcia, et al., 2014; conditions: after 72 hr of incubation; ref Monzote, Garcia, et al., 2014; cited from earlier work

SMILES	Low molecular thiol status (rate of thiol‐MF adduct formation) [1]	Effect on mitochondrial coupling in LtP ([2]; immediately after addition)	RCR with respect to vehicle‐treated LtP ([2]; prolonged incubation (6 and 24 hr))	Membrane potential of LaP (JC‐1) [3]
C=C1CC[C@H]2O[C@]2(C)CC[C@@H]2[C@@H]1CC2(C)C [Caryo, caryophyllene oxide]	decrease	–	–	–
CC(C)C12C=CC(C)(CC1)OO2 (stereo not shown) [Asc, ascaridole]	–	only little effects	declined	decrease
